What was measured:
[1] = Experimental: One aliquot of a pooled urine sample taken at 0.25 h post-dose was analyzed immediately using HPLC-LSC. Further aliquots were analyzed after storage for 24 h at room temperature. […] After incubation for 22.5 h at 37°C with shaking, incubations were terminated by the addition of acetonitrile, then extracted (three times with 2 mL acetonitrile for 30 min) and centrifuged (1726 g, 3 min). The combined supernatant was analyzed directly using HPLC-LSC.
[2] = rat, in vivo, 2.5 mg/kg
[3] = human, estimation accounting for GFR, fu (57.6%), and AUC
[4] = in vitro; conditions: rat, plasma
[5] = within 2-3 days of oral or i.v. dosing in rats and dogs; cited from earlier work
[6] = humans, dogs, and rats, oral administration; cited from earlier work
[7] = cited from earlier work
[8] = oral, Medenwald et al. and seven healthy volunteers

Structure (SMILES): CC1CS(=O)(=O)CCN1/N=C/c1ccc([N+](=O)[O-])o1 (stereo not drawn) [Nifurtimox, (E)-N-(3-methyl-1,1-dioxo-1,4-thiazinan-4-yl)-1-(5-nitrofuran-2-yl) methanimine, reference compound]
- stability in aqueous control without feces ([1]; 8.8 µM, 37°C, 22.5 h, anaerobic, data not shown): no degradation
- stability in rat feces ([1]; 8.8 µM, aqueous suspension of fresh rat feces, 37°C, 22.5 h, anaerobic): unstable in rat feces
- stability in rat urine ([1]; pooled 0.25 h post-dose urine reanalyzed after storage at room temperature for 24 h): undetectable
- component excreted in feces, oral dosing [2]: No unchanged drug was detected
- dose expected to be excreted unchanged in urine [3]: approximately 10%
- fraction unbound [4]: 0.621
- administered radioactivity detected in urine [5]: 40-50%
- unlabeled nifurtimox excreted in urine [6]: no more than 0.5 % of the administered dose
- tmax, patients who had eaten before dosing ([7]; Phase 1 food-effect PK study): 4 h
- Tmax [7, 8]: 2 to 3 h
- average elimination half-life (t½) [7, 8]: approximately 3 hours
- AUC greater in fed compared to fasting patients ([7]; same nifurtimox dose, Phase 1 food-effect study): 70%
